Type in all cases: cell-based
One test relates to A172. As to the kind of experiment: Matrigel outgrowth assay/branching assay. To be noted: Homo sapiens, A 172, Table Vb, read-out: Total branching inhibition in Matrigel A172. The gist of the method: (§1)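 Step one: Matrigel (3 mg/ml) is set for 1 h at 37° C. Step two: 5000 cells per well go on in medium with compound (0.78–3.125 μM) or DMSO. Step three: images at 48, 72 and 96 h are scored for complete loss of branching.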

The subject of another test is SF126. Description: Matrigel outgrowth assay/branching assay. To be noted: Homo sapiens, SF-126, Table Vb, read-out: Total branching inhibition in Matrigel SF126. The gist of the method: as §1
For the next test, the system named is U118. Description: Matrigel outgrowth assay/branching assay. To be noted: Table Vb, read-out: Total branching inhibition in Matrigel U118. The procedure, abridged:
as §1

A further test relates to tumor cell. Description: Matrigel outgrowth assay/branching assay (Table Va). The gist of the method: as §1
The test system of a further test is cells. Description: Boyden chamber migration assay (Table VI). To be noted: Hs578T cells, 16 h migration. The procedure, abridged: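 20000 cells seeded in the upper compartment in 0% FCS plus 0.1% BSA and left 16 h to migrate through […] membrane toward 10% FCS medium below. Non-migrated cells swabbed off; cells on the filter underside fixed and counted.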

The next test has as its system viable cells in culture. As to the kind of experiment: Cell viability assay at 10 μM (CellTiter-Glo, Table VII).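 Further: graded A 0-20%; B 21-40%; C 41-60%; D over 60% viable cells relative to DMSO control.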 To be noted: compound 10 μM, 72 h. The gist of the method: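 Viable cell number was measured with the CellTiter-Glo Luminescent Cell Viability Assay (Promega), following the manufacturer's protocol, which quantifies ATP as a marker of metabolically active cells. In 96-well plates, 1000 cells/well in 100 μl medium were exposed to compound at 10 μM, or to DMSO control, for 72 h. Values were calculated relative to DMSO-control ATP.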

[1] abbreviates: Homo sapiens, C8161 cells, read-out: Total branching inhibition in Matrigel C8161.
[2] abbreviates: Homo sapiens, Hs-578T, Hs578T cells, read-out: Total branching inhibition in Matrigel Hs578T.
[3] abbreviates: U118 cells, read-out: Total branching inhibition in Matrigel U118.
The mark [4] stands for this setting: U138 cells, read-out: Total branching inhibition in Matrigel U138.
Setting [5] is: Homo sapiens, HCT-116, HCT116 def, read-out: percentage (%) of viable cells HCT 116def.
[6] abbreviates: Homo sapiens, HCT-116, HCT116 wt, read-out: percentage (%) of viable cells HCT 116wt.
[7] abbreviates: Homo sapiens, HT-29, HT29, read-out: percentage (%) of viable cells HT29.
Setting [8] is: Homo sapiens, NCI-H358, H358, read-out: percentage (%) of viable cells H358.
The mark [9] stands for this setting: Homo sapiens, NCI-H1650, H1650, read-out: percentage (%) of viable cells H1650.
Where [10] appears, read: Homo sapiens, NCI-H1666, H1666, read-out: percentage (%) of viable cells H1666.
[11] abbreviates: Homo sapiens, NCI-H1975, H1975, read-out: percentage (%) of viable cells H1975.
[12] abbreviates: Homo sapiens, NCI-H1993, H1993, read-out: percentage (%) of viable cells H1993.
[13] abbreviates: Homo sapiens, A549, read-out: percentage (%) of viable cells A549.
Where [14] appears, read: Homo sapiens, HCC827, read-out: percentage (%) of viable cells HCC827.
The mark [15] stands for this setting: Homo sapiens, SW480, read-out: percentage (%) of viable cells SW480.
Where [16] appears, read: RKO, read-out: percentage (%) of viable cells RKO.

Like-named read-outs stand apart in the source and are kept apart here.

Take `COc1cc2c(Oc3ccc(NS(=O)(=O)c4c(F)cccc4F)cc3F)ccnc2cc1OCCCN1CCOCC1` [Example 77, 2,6-Difluoro-N-{3-fluoro-4-[6-methoxy-7-(3-morpholin-4-yl-propoxy)-quinolin-4-yloxy]-phenyl}-benzenesulfonamide]: the IC100 was over 12.5 µM in the test with A172, at most 12.5 µM in the test on SF126 and at most 12.5 µM in the test with U118. For the same compound, the IC50 was 5 to 50 µM in the test on tumor cell (setting [1]); at most 5 µM in the test with tumor cell (setting [2]); at most 5 µM in the test with tumor cell (setting [3]); 5 to 50 µM with tumor cell (setting [4]); at most 5 µM with cells (Homo sapiens, Hs-578T, 16 h). Moreover, the viability at 10 µM with viable cells in culture (setting [5]) lay in the range of 21 to 40%; with viable cells in culture (setting [6]), 0 to 20%; in the test with viable cells in culture (setting [7]) it was 41 to 60%; in the test on viable cells in culture (setting [8]) it was 0 to 20%; with viable cells in culture (setting [9]), 21 to 40%; in the test with viable cells in culture (setting [10]), 41 to 60%. For the same compound, the viability at 10 µM with viable cells in culture (setting [11]) is 0 to 20%; with viable cells in culture (setting [12]), 21 to 40%; in the test with viable cells in culture (setting [13]) it was 41 to 60%; in the test on viable cells in culture (setting [14]), over 60%; in the test on viable cells in culture (setting [15]), 0 to 20%; in the test on viable cells in culture (setting [16]), 21 to 40%.
Turning to `COc1cc2c(Oc3ccc(NS(=O)(=O)c4ccccc4C(F)(F)F)cc3Cl)ccnc2cc1OCCCN1CCN(C)CC1` [Example 87, N-(3-Chloro-4-{6-methoxy-7-[3-(4-methyl-piperazin-1-yl)-propoxy]-quinolin-4-yloxy}-phenyl)-2-trifluoromethyl-benzenesulfonamide], the IC100 in the test with A172, with SF126 and with U118 was at most 12.5 µM in each case. For the same compound, the IC50 with tumor cell (setting [1]) is at most 5 µM; with tumor cell (setting [2]) it was at most 5 µM; in the test with tumor cell (setting [3]) it was at most 5 µM; in the test on tumor cell (setting [4]), 5 to 50 µM; with cells (Homo sapiens, Hs-578T, 16 h) it was 5 to 50 µM; in the test on cells it was at most 5 µM. Besides, the viability at 10 µM is 0 to 20% with viable cells in culture (setting [5]); 41 to 60% in the test on viable cells in culture (setting [6]); 0 to 20% with viable cells in culture (setting [7]); 0 to 20% in the test with viable cells in culture (setting [8]); 21 to 40% in the test on viable cells in culture (setting [9]); 41 to 60% in the test on viable cells in culture (setting [10]). Also, the viability at 10 µM with viable cells in culture (setting [11]) is 0 to 20%; with viable cells in culture (setting [12]) it was 41 to 60%; in the test on viable cells in culture (setting [13]), over 60%; in the test with viable cells in culture (setting [14]), 41 to 60%; in the test with viable cells in culture (setting [15]), 0 to 20%; with viable cells in culture (setting [16]), 41 to 60%.
